According to patent publication US7060444B1, “Zone 3 necrosis associated markers and method of use thereof” (CuraGen Corporation, priority 2002, dated 2006):
Read-outs that look alike come from different tables or passages of the source.

Key:
[1] = tested on: Rat primary hepatocytes
[2] = tested on: rat livers
Excerpt: (§1) Each compound was delivered orally on a daily basis at a high dose (tox dose) and a 1/10 low dose (mode dose) for up to 14 days. Five male rats/dose/time were randomly assigned to sacrifice on days 1, 3, 7, and 14.
(§2) In order to construct in vivo models, the pathology of each sample had to be determined. Pathology was assigned to each liver sample by the pathologists at Bayer's Stillwell, Kans. facility. Criteria for inclusion of a compound into a particular mode included the following: • i.

[3] = tested on: liver; conditions: once converted to reactive metabolites; cited from earlier work
[4] = tested on: rat livers; experiment: Induction of Zone 3 Necrosis in vivo, liver pathology annotation; conditions: for Zone 3 Necrosis in vivo: Pathology Present: sampled 1, 3, 7, 14 d
Excerpt: as §1, §2

[5] = tested on: liver; experiment: In vivo pathology annotation: Hypertrophy; design: species or system rat; conditions: in vivo compound annotation
Excerpt: Hypertrophy: Increase in cell size and liver weight. • iv. […] Steatosis: Increase in lipid accumulation or “vacuolar degeneration.” • vii. […] Two approaches were used.

[6] = tested on: liver; conditions: rats, through a sequence of events that begin with necrosis; cited from earlier work
[7] = rat primary hepatocytes, 250 microM
[8] = rat primary hepatocytes, 100 microM
[9] = rat primary hepatocytes, 40 microM
[10] = rat primary hepatocytes, 20 microM
[11] = rat primary hepatocytes, 1000 microM
[12] = rat primary hepatocytes, 2 microM
[13] = rat primary hepatocytes, 50 microM

In the case of Brc1cccc(Br)c1 [1,3-Dibromobenzene], the “Zone 3 Necrosis Pathology” value [1, 7] is reported as “Present” and the “Zone 3 Necrosis in vivo: Pathology Present” value ([2]; male) is reported as 1 d.

With Clc1ccc(Cl)cc1 [1,4-dichlorobenzene] the “Zone 3 Necrosis Pathology” value [1, 8] was “Absent”.

With Cc1cc(N=Nc2ccccc2)ccc1N(C)C [3-methyl-4-(dimethylamino)azobenzene] the “Zone 3 Necrosis Pathology” value ([1]; rat primary hepatocytes, 1.6 microM) was “Absent”.

For Cc1ccc2cc3c(ccc4ccccc43)c3c2c1CC3 [3-methylcholanthrene], the “Zone 3 Necrosis Pathology” value [1, 9] was “Absent”.

In the case of CC(=O)Nc1ccc(O)cc1 [Acetaminophen], the “zonal necrosis of the liver produced” value [3] is listed as “produce mainly zone 3 necrosis”.

For CC(=O)Oc1ccccc1C(=O)O [Aspirin], the “Zone 3 Necrosis Pathology” value ([1]; rat primary hepatocytes, 55.5 microM) was “Absent”.

In the case of [N-]=[N+]=CC(=O)OC[C@H](N)C(=O)O [Azaserine], the “Zone 3 Necrosis in vivo: Pathology Present” value ([4]; High 100 mg/kg (ip)) is reported as 1,3 d and the “Zone 3 Necrosis Pathology” value ([1]; rat primary hepatocytes, 500 microM) is reported as “Present”.

With CC[N+](C)(C)Cc1ccccc1Br [Bretylium] the “Zone 3 Necrosis Pathology” value [1] was “Absent”.

With Brc1ccccc1 [Bromobenzene] the “Zone 3 Necrosis Pathology” value ([1]; rat primary hepatocytes, 3000 microM) was “Present” and the “Zone 3 Necrosis in vivo: Pathology Present” value ([2]; male) was 12, 48 h.

For ClC(Cl)(Cl)Cl [CCl4, carbon tetrachloride], the “zonal necrosis of the liver produced” value [3] is given as “produce mainly zone 3 necrosis”.

For CO/N=C(\C(=O)N[C@@H]1C(=O)N2C(C(=O)O)=C(COC(N)=O)CS[C@H]12)c1ccco1 [Cefuroxime], the “Zone 3 Necrosis Pathology” value ([1]; rat primary hepatocytes, 224 microM) was “Absent”.

In the case of [Ce+3].[Cl-].[Cl-].[Cl-] [Cerium (III) Chloride], the “Zone 3 Necrosis Pathology” value [1, 10] is reported as “Present”.

In the case of ClC1=C(Cl)C2(Cl)C3C(Cl)C(Cl)CC3C1(Cl)C2(Cl)Cl (stereo not shown) [Chlordane], the “Zone 3 Necrosis Pathology” value ([1]; rat primary hepatocytes, 8 microM) is reported as “Absent”.

In the case of CCOC(=O)C(C)(C)Oc1ccc(Cl)cc1 [Clofibrate], the hypertrophy in vivo [5] is reported as “produced hypertrophy in vivo” and the “Zone 3 Necrosis Pathology” value [1, 8] is reported as “Absent”.

For Clc1cccc(Cl)c1N=C1NCCN1 [Clonidine], the “Zone 3 Necrosis Pathology” value [1] was “Absent”.

In the case of O=c1ccc2ccccc2o1 [Coumarin], the “Zone 3 Necrosis in vivo: Pathology Present” value ([4]; High 150 mg/kg/d) is reported as 3 d and the “Zone 3 Necrosis Pathology” value [1, 7] is reported as “Present”.

With C[C@@H]1C[C@H]2[C@@H]3CCC4=CC(=O)C=C[C@]4(C)[C@@]3(F)[C@@H](O)C[C@]2(C)[C@@]1(O)C(=O)CO [Dexamethasone] the “Zone 3 Necrosis Pathology” value [1] was “Absent”.

In the case of CCN(CC)N=O [Diethylnitrosamine], the hepatocellular carcinoma [6] is given as “show evidence of producing hepatocellular carcinoma in rats”, the “Zone 3 Necrosis Pathology” value ([1]; rat primary hepatocytes, 300 microM) is given as “Present” and the “Zone 3 Necrosis in vivo: Pathology Present” value [2] is given as 1, 3, 7 d.

In the case of CN(C)C=O [Dimethylformamide], the “Zone 3 Necrosis Pathology” value ([1]; rat primary hepatocytes, 5000 microM) is reported as “Present” and the “Zone 3 Necrosis in vivo: Pathology Present” value ([2]; male) is reported as 48 h.

In the case of CN(C)N=O [Dimethylnitrosamine], the “Zone 3 Necrosis Pathology” value [1, 11] is reported as “Present” and the “Zone 3 Necrosis in vivo: Pathology Present” value [2] is reported as 7, 14 d.

For c1cc[n+]2c(c1)-c1cccc[n+]1CC2 [Diquat], the “Zone 3 Necrosis in vivo: Pathology Absent” value ([2]; male) was 6, 12, 24, 48 h.

In the case of CC(C)N(CCC(C(N)=O)(c1ccccc1)c1ccccn1)C(C)C (stereo not shown) [Disopyramide], the “Zone 3 Necrosis Pathology” value ([1]; rat primary hepatocytes, 3 microM) is reported as “Absent”.

For COc1cccc2c1C(=O)c1c(O)c3c(c(O)c1C2=O)C[C@@](O)(C(=O)CO)C[C@@H]3O[C@H]1C[C@H](N)[C@H](O)[C@H](C)O1 [Doxorubicin], the “Zone 3 Necrosis Pathology” value [1] was “Absent”.

For CCC(=O)O[C@H]1[C@H](O[C@@H]2[C@@H](C)[C@H](O[C@H]3C[C@@](C)(OC)[C@@H](O)[C@H](C)O3)[C@@H](C)C(=O)O[C@H](CC)[C@@](C)(O)[C@H](O)[C@@H](C)C(=O)[C@H](C)C[C@@]2(C)O)O[C@H](C)C[C@@H]1N(C)C.CCCCCCCCCCCCOS(=O)(=O)O [Erythromycin Estolate (EE), Erythromycin Estolate], the “Zone 3 Necrosis Pathology” value [1, 10] was “Absent”.

With CCO [Ethanol] the “Zone 3 Necrosis Pathology” value [1] was “Absent”.

In the case of CCSCC[C@H](N)C(=O)O [Ethionine], the “Zone 3 Necrosis Pathology” value [1, 11] is reported as “Present”.

For CCC1(C)CC(=O)NC1=O (stereo not shown) [Ethosuximide], the “Zone 3 Necrosis Pathology” value [1, 11] was “Absent”.

In the case of OC(c1ccc(Cl)cc1)(c1cncnc1)c1ccccc1Cl (stereo not shown) [Fenarimol], the “Zone 3 Necrosis Pathology” value [1, 10] is reported as “Absent”.

With OC(Cn1cncn1)(Cn1cncn1)c1ccc(F)cc1F [Fluconazole] the “Zone 3 Necrosis Pathology” value [1] was “Absent”.

For CCCC[C@@H](C)[C@@H](OC(=O)C[C@@H](CC(=O)O)C(=O)O)[C@H](C[C@@H](C)C[C@H](O)CCCC[C@@H](O)C[C@H](O)[C@H](C)N)OC(=O)C[C@@H](CC(=O)O)C(=O)O [Fumonisin B(1)], the hepatocellular carcinoma [6] is listed as “show evidence of producing hepatocellular carcinoma in rats”.

For NCC1(CC(=O)O)CCCCC1 [Gabapentin], the “Zone 3 Necrosis Pathology” value [1, 12] was “Absent”.

For CC(C)Cc1ccc(C(C)C(=O)O)cc1 (stereo not shown) [Ibuprofen], the “Zone 3 Necrosis Pathology” value [1, 13] was “Absent”.

With CC(=O)N1CCN(c2ccc(OCC3COC(Cn4ccnc4)(c4ccc(Cl)cc4Cl)O3)cc2)CC1 (stereo not shown) [Ketoconazole] the “Zone 3 Necrosis in vivo: Pathology Absent” value ([4]; male, liver, oral, 10 mg/kg/d) was 1, 3 d and the “Zone 3 Necrosis Pathology” value [1, 12] was “Absent”.

In the case of CCC1(c2ccccc2)NC(=O)N(C)C1=O (stereo not shown) [Mephenytoin], the “Zone 3 Necrosis Pathology” value ([1]; rat primary hepatocytes, 14.2 microM) is reported as “Absent”.

With Nc1cc(N2CCCCC2)nc(N)[n+]1[O-] [Minoxidil] the “Zone 3 Necrosis Pathology” value ([1]; rat primary hepatocytes, 0.166 microM) was “Absent”.

In the case of ClC1(Cl)C2(Cl)C3(Cl)C4(Cl)C(Cl)(Cl)C5(Cl)C3(Cl)C1(Cl)C5(Cl)C24Cl (stereo not shown) [Mirex], the “Zone 3 Necrosis Pathology” value [1, 13] is reported as “Absent”.

For [Mo] [Molybdenum], the “Zone 3 Necrosis in vivo: Pathology Present” value ([4]; High 500 mg/kg/d) was 3 d and the “Zone 3 Necrosis Pathology” value [1, 13] was “Present”.

For C[C@H]1C(=O)O[C@@H]2CCN3CC=C(COC(=O)[C@](C)(O)[C@]1(C)O)[C@H]23 [Monocrotaline], the “Zone 3 Necrosis Pathology” value [1, 8] was “Present”.

In the case of O=NN1CCCCC1 [N-Nitrosopiperidine], the “Zone 3 Necrosis Pathology” value ([1]; rat primary hepatocytes, 3200 microM) is reported as “Present”.

With CCCCN(CCCC)N=O [N-nitrosodibutylamine] the “Zone 3 Necrosis Pathology” value ([1]; rat primary hepatocytes, 200 microM) was “Absent”.

With O=NN1CCOCC1 [N-nitrosomorpholine] the “Zone 3 Necrosis Pathology” value ([1]; rat primary hepatocytes, 3750 microM) was “Present”.

For O=NN(CCO)CCO [Nitrosodiethanolamine], the “Zone 3 Necrosis Pathology” value [1, 11] was “Absent”.

In the case of Oc1c(Cl)c(Cl)c(Cl)c(Cl)c1Cl [Pentachlorophenol], the “Zone 3 Necrosis Pathology” value ([1]; rat primary hepatocytes, 19 microM) is reported as “Absent”.

With COc1cc2nc(N3CCN(C(=O)c4ccco4)CC3)nc(N)c2cc1OC [Prazosin] the “Zone 3 Necrosis Pathology” value [1] was “Absent”.

In the case of CC(=O)[C@H]1CC[C@H]2[C@@H]3CC=C4C[C@@H](O)CC[C@]4(C)[C@H]3CC[C@]12C [Pregnenolone], the “Zone 3 Necrosis Pathology” value ([1]; rat primary hepatocytes, 38 microM) is reported as “Absent”.

For c1ccncc1 [Pyridine], the “Zone 3 Necrosis Pathology” value [1] was “Present” and the “Zone 3 Necrosis in vivo: Pathology Present” value ([2]; male) was 14 d.

With CO[C@H]1/C=C/O[C@@]2(C)Oc3c(C)c(O)c4c(O)c(c(/C=N/N5CCN(C)CC5)c(O)c4c3C2=O)NC(=O)/C(C)=C\C=C\[C@H](C)[C@H](O)[C@@H](C)[C@@H](O)[C@@H](C)[C@H](OC(C)=O)[C@@H]1C [Rifampicin] the “Zone 3 Necrosis Pathology” value [1] was “Absent”.

For CC(=N)S [Thioacetamide], the “Zone 3 Necrosis Pathology” value ([1]; rat primary hepatocytes, 2000 microM) was “Present”.

In the case of NC(=S)c1ccccc1 [Thiobenzamide], the “Zone 3 Necrosis Pathology” value [1, 9] is reported as “Present”.
